Publication PMC10800876, “Evaluation of proline-rich antimicrobial peptides as potential lead structures for novel antimycotics against Cryptococcus neoformans” (Frontiers in Microbiology, 2024)
Values after ≈ are worked out from the molar mass of the structure shown. Read-outs that look alike come from different tables or passages of the source. Starred links: 1 amine or outer side, 2 acyl side, 3 side chain; linkers in the order of their positions; H or OH if unused. Non-standard residues stand in square brackets, D forms with d. Residues, ends and D or L forms follow the SMILES beside them. *: point of attachment. 5FAM = O=C1OC2(c3ccc(O)cc3Oc3cc(O)ccc32)c2ccc(C(=O)*)cc21; δOrn(α-TMG) = CN(C)C(=N[C@@H](CCCN[*:1])C(=O)[*:2])N(C)C; Ac6c = NC1(C(=O)O)CCCCC1; Orn = NCCC[C@H](N)C(=O)O

System: C. neoformans 1841 (serotype D)
Settings: for activity of Cf-labeled peptide relative to the corresponding unlabeled peptide: C. neoformans 1841
[1] = C. neoformans 1841, read after 24 h, mean of three replicates (n = 3)
[2] = C. neoformans 1841, read after 48 h, mean of three replicates (n = 3)

SMILES	MIC (mg/L) 24 h, Cf-labeled peptides (1841 (serotype D, 24 h)) [mg/L]	MIC (after 48 h) (1841 (serotype D, 48 h)) [µM]	MIC (mg/L) 48 h, Cf-labeled peptides (1841 (serotype D, 48 h)) [mg/L]	activity of Cf-labeled peptide relative to the corresponding unlabeled peptide	MIC (mg/L) 24 h, Cf-labeled peptides [1] [mg/L]	MIC (mg/L) 48 h, Cf-labeled peptides [2] [mg/L]
CC[C@H](C)[C@H](NC(=O)[C@H](Cc1ccc(O)cc1)NC(=O)[C@@H](NC(=O)[C@@H]1CCCN1C(=O)[C@H](CCCNC(=N)N)NC(=O)[C@H](CC(N)=O)NC(=O)[C@H](CC(N)=O)NC(=O)CNC(=O)c1ccc2c(c1)C(=O)OC21c2ccc(O)cc2Oc2cc(O)ccc21)C(C)C)C(=O)N1CCC[C@H]1C(=O)N[C@@H](CCC(N)=O)C(=O)N1CCC[C@H]1C(=O)N[C@@H](CCCNC(=N)N)C(=O)N1CCC[C@H]1C(=O)N1CCC[C@H]1C(=O)N[C@@H](Cc1c[nH]cn1)C(=O)N1CCC[C@H]1C(=O)N[C@@H](CCCNC(=N)N)C(=O)N[C@@H](CC(C)C)C(=O)O [Cf-Apidaecin 1b] (5FAM-GNNRPVYIPQPRPPHPRL-OH)	>128	> 61	>128	–	–	–
CC(C)C[C@H](NC(=O)[C@H](Cc1ccc(O)cc1)NC(=O)[C@@H]1CCCN1C(=O)[C@H](CCCNC(=N)N)NC(=O)[C@@H]1CCCN1C(=O)[C@H](CCCCN)NC(=O)[C@H](CCCCN)NC(=O)[C@@H]1CCCN1C(=O)[C@H](CCCNC(=N)N)NC(=O)C1(NC(=O)c2ccc3c(c2)C(=O)OC32c3ccc(O)cc3Oc3cc(O)ccc32)CCCCC1)C(=O)N1CCC[C@H]1C(=O)N[C@@H](CCCNC(=N)N)C(=O)N1CCC[C@H]1C(=O)N[C@@H](CCCNC(=N)N)C(=O)N1CCC[C@H]1C(=O)N1CCC[C@H]1C(=O)N[C@@H](CCCNC(=N)N)C(=O)N1CCC[C@H]1C(=O)N[C@H](C(=O)N[C@@H](CCCNC(=N)N)C(N)=O)C(C)C [Cf-Chex1Arg20 D4K] (5FAM-[Ac6c]RPKKPRPYLPRPRPPRPVR-NH2)	–	1.6 (≈ 4.55 µg/mL)	–	slightly less active	8 (≈ 2.81 µM)	8 (≈ 2.81 µM)
CC[C@H](C)[C@H](NC(=O)[C@H](Cc1ccc(O)cc1)NC(=O)[C@@H](NC(=O)[C@@H]1CCCN1C(=O)[C@H](CCCNC(=N)N)NC(=O)[C@H](CC(N)=O)NC(=O)[C@H](CC(N)=O)NC(=O)[C@H](CCCNC(=O)c1ccc2c(c1)C(=O)OC21c2ccc(O)cc2Oc2cc(O)ccc21)N=C(N(C)C)N(C)C)C(C)C)C(=O)N1CCC[C@H]1C(=O)N[C@@H](CCCNC(=N)N)C(=O)N1CCC[C@H]1C(=O)N[C@@H](CCCNC(=N)N)C(=O)N1CCC[C@H]1C(=O)N1CCC[C@H]1C(=O)N[C@@H](Cc1c[nH]cn1)C(=O)N1CCC[C@H]1C(=O)N[C@@H](CCCNC(=N)N)C(=O)N[C@@H](CC(C)C)C(=O)O [Cf-Api137] (5FAM-[δOrn(α-TMG)]NNRPVYIPRPRPPHPRL-OH)	> 64	28 (≈ 74.2 µg/mL)	> 64	slightly less active	–	–
CC(C)C[C@H](NC(=O)[C@H](Cc1ccc(O)cc1)NC(=O)[C@@H]1CCCN1C(=O)[C@H](CCCNC(=N)N)NC(=O)[C@@H]1CCCN1C(=O)[C@H](CCCCN)NC(=O)[C@H](CC(=O)O)NC(=O)[C@@H]1CCCN1C(=O)[C@H](CCCNC(=N)N)NC(=O)C1(NC(=O)c2ccc3c(c2)C(=O)OC32c3ccc(O)cc3Oc3cc(O)ccc32)CCCCC1)C(=O)N1CCC[C@H]1C(=O)N[C@@H](CCCNC(=N)N)C(=O)N1CCC[C@H]1C(=O)N[C@@H](CCCNC(=N)N)C(=O)N1CCC[C@H]1C(=O)N1CCC[C@H]1C(=O)N[C@@H](CCCNC(=N)N)C(=O)N1CCC[C@H]1C(=O)N[C@H](C(=O)N[C@@H](CCCNC(=N)N)C(N)=O)C(C)C [Cf-Chex1Arg20] (5FAM-[Ac6c]RPDKPRPYLPRPRPPRPVR-NH2)	–	3.2 (≈ 9.07 µg/mL)	–	slightly more active	4 (≈ 1.41 µM)	4 (≈ 1.41 µM)
CC[C@H](C)[C@H](NC(=O)[C@H](CCCNC(=O)c1ccc2c(c1)C(=O)OC21c2ccc(O)cc2Oc2cc(O)ccc21)N=C(N(C)C)N(C)C)C(=O)N[C@@H](CCCN)C(=O)N[C@H](C(=O)N[C@@H](CCCN)C(=O)N[C@@H](CCCNC(=N)N)C(=O)N1CCC[C@H]1C(=O)N[C@H](C(=O)N[C@@H](Cc1ccc(O)cc1)C(=O)N[C@@H](CCCN)C(=O)N1CCC[C@H]1C(=O)N[C@@H](CCCNC(=N)N)C(=O)N1CCC[C@H]1C(=O)N[C@@H](CCCNC(=N)N)C(=O)N1CCC[C@H]1C(=O)N1CCC[C@H]1C(=O)N[C@@H](Cc1c[nH]cn1)C(=O)N1CCC[C@H]1C(=O)N[C@@H](CCCNC(=N)N)C(=O)N[C@@H](CC(C)C)C(=O)O)C(C)C)[C@@H](C)CC [Cf-Api795] (5FAM-[δOrn(α-TMG)]I[Orn]I[Orn]RPVY[Orn]PRPRPPHPRL-OH)	–	3.2 (≈ 9.21 µg/mL)	–	slightly more active	4 (≈ 1.39 µM)	4 (≈ 1.39 µM)
CC[C@H](C)[C@H](NC(=O)[C@@H](CCCNC(=N)N)NC(=O)[C@H](CCCNC(=N)N)NC(=O)[C@@H]1CCCN1C(=O)[C@@H]1CCCN1C(=O)[C@H](CCCNC(=N)N)NC(=O)[C@@H]1CCCN1C(=O)[C@H](CCCNC(=N)N)NC(=O)[C@@H]1CCCN1C(=O)[C@H](CC(C)C)NC(=O)[C@H](Cc1ccc(O)cc1)NC(=O)[C@@H]1CCCN1C(=O)[C@@H]1CCCN1C(=O)[C@H](CCCCN)NC(=O)[C@H](CC(=O)O)NC(=O)[C@@H](NC(=O)c1ccc2c(c1)C(=O)OC21c2ccc(O)cc2Oc2cc(O)ccc21)C(C)C)C(=O)N[C@@H](Cc1ccc(O)cc1)C(=O)N[C@@H](CC(N)=O)C(=O)N[C@H](CCCNC(=N)N)C(N)=O [Cf-Onc112] (5FAM-VDKPPYLPRPRPPR[dR]IYN[dR]-NH2)	4 to 8	6.7 (≈ 18.4 µg/mL)	4 to 8	slightly more active	–	–
CC[C@H](C)[C@H](NC(=O)[C@H](Cc1ccc(O)cc1)NC(=O)[C@@H](NC(=O)[C@@H]1CCCN1C(=O)[C@H](CCCNC(=N)N)NC(=O)[C@H](CC(N)=O)NC(=O)[C@H](CC(N)=O)NC(=O)[C@H](CCCNC(=O)c1ccc2c(c1)C(=O)OC21c2ccc(O)cc2Oc2cc(O)ccc21)N=C(N(C)C)N(C)C)C(C)C)C(=O)N1CCC[C@H]1C(=O)N[C@@H](CCCNC(=N)N)C(=O)N1CCC[C@H]1C(=O)N[C@@H](CCCNC(=N)N)C(=O)N1CCC[C@H]1C(=O)N1CCC[C@H]1C(=O)N[C@@H](Cc1c[nH]cn1)C(=O)N1CCC[C@H]1C(=O)N[C@@H](CCCNC(=N)N)C(=O)N[C@@H](CC(C)C)C(N)=O [Cf-Api88] (5FAM-[δOrn(α-TMG)]NNRPVYIPRPRPPHPRL-NH2)	32 (≈ 12.1 µM)	7.0 (≈ 18.5 µg/mL)	32 to 64	slightly less active	–	–
